Assay [1] deals with Enterococcus faecalis (ATCC 29212). Put plainly: Agar Well Diffusion Assay (K-B disks). In kind it is cell-based. The settings on record: EFAECL; K-B disk, 25 uL, dilutions in DMSO; width of zone; one value per test date. On the procedure:
An Agar Well Diffusion Assay pilot evaluation of AB-101 BRM was conducted to seek an initial signal of the activity of AB-101 BRM against various bacteria. AB-101 BRM was tested against the following bacterial species: • Streptococcus pneumoniae (ATCC 49619) (SPNEU) Gram (+) • Streptococcus pyogenes (clinical isolate) (GABHS) Gram (+) • Enterococcus faecalis (ATCC 29212) (EFAECL) Gram (+) • Coagulase-negative Staphylococcus (clinical isolate) (CNS) Gram (+) • Escherichia coli (ATCC 25922) (EC) Gram (−) • Pseudomonas aeruginosa (ATCC 27853) (PAER) Gram (−) • Klebsiella pneumoniae (ATCC 700603) (KPNEU) Gram (−) • Staphylococcus aureus (ATCC […]) (SAUR) Gram (+) • Methicillin-resistant Staphylococcus aureus (ATCC 49476) (MRSA) Gram (+)
Isolates were subcultured the day before the Agar Well Diffusion Assay was performed. On the day of the assay, a bacterial suspension (0.08-0.12 MacFarland units) of each bacteria isolate was made in Trypticase Soy Broth (TSB), and these suspensions were used to plate a lawn of bacterial organisms on Mueller-Hinton agar or Mueller-Hinton sheep's blood agar. A control antibiotic Kirby-Bauer (K-B) disk plus K-B disks containing 25 uL of AB-101 dilutions were placed on the plates, and the plates were incubated overnight. The next day, the width of the zone of growth inhibition surrounding each K-B disk was recorded (in mm). […]
For orientation: Agar diffusion results depend on both activity and mobility in agar.

Assay [2] concerns MSSA and MRSA strains (Mupirocin-resistant and Mupirocin-susceptible). Briefly: In vitro MIC, panel of MSSA and MRSA strains. The settings on record: for MIC: Staphylococcus aureus. In kind it is cell-based, Staphylococcus aureus. An excerpt: (§1) Measures included the minimum inhibitory concentration (MIC) which is the lowest concentration of AB-101 that prevents visible growth of the bacterium or pathogen, and minimum bactericidal concentration (MBC) which is the lowest concentration of an antibacterial agent required to kill a bacterium.

The test system is the same in assay [3]. Put plainly: In vitro MBC, panel of MSSA and MRSA strains. Format: cell-based, Staphylococcus aureus. Particulars: purified extract of taspine.
From the text: as §1

Where [4] appears, read: ATCC 29213 / MRSA / MSSA, strain ATCC 29213, QC control.

Converted amounts (≈) assume the structure as drawn. A value given as a limit tells only on which side of the number the result lay.

With `CC1(C)S[C@@H]2[C@H](NC(=O)[C@H](N)c3ccccc3)C(=O)N2[C@H]1C(=O)O` [AMP, Ampicillin], in assay [1], the “Zone of Inhibition (MM)” value is given as “AMP 8 MM”.

Consider `COc1cccc(OC)c1C(=O)N[C@@H]1C(=O)N2[C@@H]1SC(C)(C)[C@@H]2C(=O)O` [Methicillin], for which the MIC (usually the lowest concentration found to suppress growth) in assay [2] (setting [4]) is 1 to 2 µg/mL (≈ 2.63 to 5.26 µM).

With `C/C(=C\C(=O)OCCCCCCCCC(=O)O)C[C@@H]1OC[C@H](C[C@@H]2O[C@H]2[C@@H](C)[C@H](C)O)[C@@H](O)[C@H]1O` [Mupirocin], the MIC was 0.25 to 0.5 µg/mL (≈ 0.499 to 0.999 µM) in assay [2] (setting [4]); above 256 µg/mL in assay [2] (strain 1674606, MupirocinR, MSSA); above 256 µg/mL in assay [2] (strain 1674607, MupirocinR, MRSA); 0.25 to 0.5 µg/mL (≈ 0.499 to 0.999 µM) in assay [2] (strain CDC 227, MupirocinS, MRSA); at most 0.25 µg/mL in assay [2] (strain CDC 462, MupirocinS, MSSA); at most 0.25 µg/mL in assay [2] (strain CDC 464, MupirocinS, MSSA). Moreover, the MIC in assay [2] (strain CDC 484, MupirocinS, MSSA) was at most 0.25 µg/mL; in assay [2] (strain CDC 485, MupirocinS, MSSA) it was at most 0.25 µg/mL.

Take `COc1ccc2c(=O)oc3c(OC)cc(CCN(C)C)c4c(=O)oc1c2c34` [Taspine, taspine]: the “activity against MSSA and MRSA (MIC)” value in assay [2] (highest concentration tested 50% relative to AB-101 = 10 μg/mL) is on record as “does not have activity”. Also, the “activity against MSSA and MRSA (MBC)” value in assay [3] was “does not have activity”.

For Gentamicin [GM], the “Zone of Inhibition (MM)” value in assay [1] is “GM 5 MM”.

The values are drawn from patent publication US20220105147A1, “CROTON LECHLERI COMPOSITIONS FOR USE IN THE TOPICAL TREATMENT OF ACUTE BACTERIAL SKIN OR SKIN STRUCTURE INFECTION” (priority 2019, published 2022).
